Results from article PMC8296985, “A Covalent Calmodulin Inhibitor as a Tool to Study Cellular Mechanisms of K-Ras-Driven Stemness” (Frontiers in Cell and Developmental Biology, 2021).
Read-outs that look alike come from different tables or passages of the source.

Columns and labels:
Hs 578T = experiment: 3D spheroid (tumorosphere) formation assay, low attachment, serum-free, alamarBlue; format: cell-based; conditions: Homo sapiens
Description: (§1) 3D spheroid formation assays were performed in 96-well low-attachment, suspension culture plates (cat. no. 655185, Cellstar, Greiner Bio-One) under serum-free condition. About 1,000 (MDA-MB-231, NCI-H358, and MIA PaCa-2) or 2,500 (Hs 578T) cells per well were seeded in 50 μl of either an RPMI medium (cat. no. 52400-025, Gibco, Thermo Fisher Scientific) (MDA-MB-231, A375, and NCI-H358) or DMEM (cat. no. 41965-039, Gibco, Thermo Fisher Scientific) (Hs 578T and MIA PaCa-2), containing 0.5% MethoCult (cat. no. SF H4636, Stemcell technologies), 1x B27 (cat. no. 17504044, Gibco, Thermo Fisher Scientific), 25 ng/ml EGF (cat. no. E9644, Sigma-Aldrich), and 25 ng/ml FGF (cat. no. RP-8628, Thermo Fisher Scientific). Cells were cultured for 3 days and then treated with compounds or vehicle control (DMSO 0.1% v/v in growth medium) for another 3 days. The cells were supplemented with a fresh growth medium on the third day together with the drug treatment. For knockdown experiments, cells were seeded in 12-well plates and treated with either 50 nM scrambled siRNA (cat. no. 1022076, QIAGEN) or indicated concentrations of siRNAs. Next day, cells were collected by trypsinization and re-plated into 96-well plates for 3D spheroid suspension culture.
(§2) Spheroid formation efficiency was analyzed by an alamarBlue assay reagent (cat. no. DAL1100, Thermo Fisher Scientific). A 10% final volume of the alamarBlue reagent was added to each well of the plate and incubated for 4 h at 37°C. Then the fluorescence intensity was measured using the FLUOstar OPTIMA plate reader (BMG Labtech, Germany) with an excitation wavelength of 560 ± 5 nm and an emission wavelength of 590 ± 5 nm.
(§3) To quantitatively profile the drug sensitivity with a more robust parameter than the IC50 or EC50 values, the drug sensitivity score (DSS) analysis was employed. DSS values are essentially normalized area under the curve (AUC) measures of dose-response inhibition data ([Yadav et al., 2014]). Drug response data files (in Excel) ready for online analysis were prepared according to the example file obtained from the DSS pipeline website, called Breeze^1 ([Potdar et al., 2020]). Either raw fluorescence intensity measurements or normalized % inhibition data (for BRET assay analysis) were uploaded.
(§4) DSS3 was employed to emphasize drugs that obtain their response area over a relatively wide dose window, as compared to drugs that show increased response only at the higher end of the concentration range. After logistic fitting of the dose-response inhibition data, the area under the curve (AUC) was determined as the exact solution. A 10% minimal activity threshold (t) was set. The maximum (Cmax) and minimum (Cmin) concentrations were used for screening of the inhibitors, with Cmax = x2 and x1 concentration with minimal activity t.

MDA-MB-231 = experiment: as above; format: cell-based; conditions: for IC50: Homo sapiens; for KRAS/HRAS mutant cell line DSS3 ratio: MDA-MB-231 vs Hs 578T 3D spheroid formation, 0.6–40 μM, numbers above bars Fig. 1A,B
Description: as §1, §2, §3, §4

Chemical stability note = format: physicochemical
calmodulin (CaM) = calmodulin (CaM) (Bos taurus, UniProt P62157); experiment: Fluorescence polarization assay, displacement of F-PMCA peptide from CaM; conditions: for kinact/KI: read-out: k2/Ki second-order rate constant
K-RasG12V/CaM = biological target: T1, K-RasG12V/CaM (Homo sapiens, UniProt P0DP23); experiment: Rluc8-K-RasG12V/GFP2-CaM interaction BRET in HEK293-EBNA cells; format: cell-based; conditions: 24-h exposure, A/D plasmid ratio 9/1; read-out: IC50 of Rluc8-K-RasG12V/GFP2-CaM BRET signal
T1 construct: expressed in transfected cells; host or cells: HEK293-EBNA
Description: BRET assays were essentially performed as described by others ([Lavoie et al., 2013]; [Bery et al., 2018]). About 100,00–150,000 HEK293-EBNA ([Meissner et al., 2001]) cells were seeded per well of a 12-well plate in 1 ml of DMEM containing 10% FBS and 2 mM L-glutamine and were grown for 24 h. Next day, Rluc8-tagged donor and GFP2-tagged acceptor constructs were transfected into cells using a jetPRIME transfection reagent (cat. no. 114-75, Polyplus). Each well was transfected with about 1 μg of plasmid DNA using 3 μl of the jetPRIME reagent. For BRET donor saturation titration experiments, the concentration of donor plasmid (25 ng) was kept constant, and the concentration of acceptor plasmid was increased from 0 to 500 ng for RasG12V BRET pairs and 0–1,000 ng for K-Ras/CaM BRET pairs. The empty pcDNA3.1(-) plasmid was used to top-up the total DNA load per transfection. After 24 h of transfection, cells were treated with compounds or vehicle control (DMSO 0.2% v/v in a growth medium) at the specified concentration for 24 h or the stipulated time period in case of the time-course experiments. The cells from one well of a 12-well plate were collected, washed, and re-plated in PBS (cat. no. 14190-094, Gibco, Thermo Fisher Scientific) on flat bottom, white 96-well plates (cat. no. 236108, Nunc, Thermo Fisher Scientific) as four technical replicates containing 90 μl of cell suspension per well. Then fluorescence intensity followed by BRET readings were carried out on a Clariostar (BMG Labtech) plate reader at 25°C. The fluorescence intensity (RFU) of GFP2 was measured with excitation at 405 ± 10 nm and emission 515 ± 10 nm; it is proportional to the acceptor concentration [acceptor]. BRET readings were taken well by well by adding 10 μl of 100 μM coelenterazine 400a (cat. no. C-320, GoldBio), the Rluc8 substrate to each well (final concentration of 10 μM) using the injector present in the plate reader. Luminescence emission intensities were simultaneously recorded at 410 ± 40 nm (RLU, proportional to [donor]) and 515 ± 15 nm (BRET signal).
The raw BRET ratio was calculated as the BRET signal measured at 515 nm divided by the emission signal measured at 410 nm (RLU). The BRET ratio was obtained by subtracting the raw BRET ratio by a background BRET signal measured for cells expressing only the donor ([Bacart et al., 2008]) as indicated in the formula below:
For BRET donor saturation titration experiments, the BRET ratio was plotted against the [acceptor]/[donor] ratio. Technical repeat data points were averaged, and data points from all biological repeats were collected into one graph for subsequent fitting. The BRET ratio vs. relative expression data were fitted using a binding saturation equation in the Prism (GraphPad) software to obtain BRETmax and BRET50 using the equation y=BRETmax×x/BRET50+x , where x is the relative expression and y is the BRET ratio. BRETmax represents the maximum saturation BRET signal and depends on the structural parameters (distance, orientation) of the BRET complex. BRET50 corresponds to the ratio of the acceptor construct over the donor construct required to attain 50% of the maximum BRET signal and is a measure of the effective relative affinity between the interacting BRET pair ([Marullo and Bouvier, 2007]).

[1] = biological target: T2, mutCaM (CaM with K75Q, K77Q, and K148Q mutations) (Homo sapiens, UniProt P0DP23, K76Q/K78Q); experiment: Fluorescence polarization assay with F-CaMKII peptide and His-mutCaM; format: binding; conditions: 50 nM His-mutCaM, 5 nM F-CaMKII, compared to wt CaM
T2 construct: made in house; host or cells: E. coli BL21 Star (DE3)pLysS
Description: Our numbering of CaM follows ([Kong Au and Chow Leung, 1998]) with Ala being the first amino acid in human CaM, as the N-terminal methionine of CaM is removed in most organisms ([Halling et al., 2016]). […] At A600 of 0.6–0.8, the culture was induced with 0.5 mM of isopropyl β-D-thiogalactopyranoside and expressed for 16 h at 25°C. Cells were collected by centrifugation and incubated on ice for 30 min. The cell suspension was sonicated in a lysis buffer (20 mM HEPES, pH 7.6, 150 mM NaCl, 5 mM MgCl2, 0.5 mg/ml lysozyme, and DNase I). The lysates were clarified by centrifugation at 18,000 g for 30 min at 4°C. The soluble fractions were subjected to protein purification.

[2] = tested on: Ca^2+/CaM-dependent cyclic nucleotide phosphodiesterase; design: method as in Itoh and Hidaka, 1984; Zimmer and Hofmann, 1984; conditions: ref Itoh and Hidaka, 1984, Zimmer and Hofmann; cited from earlier work
[3] = 72 h, Hs 578T (H-RasG12D) 3D tumorosphere, 3 days treatment, read-out: IC50
[4] = Hs 578T 3D tumorosphere, log scale, read-out: logIC50 ± SD (converted)
[5] = 72 h, MDA-MB-231 (K-RasG13D) 3D tumorosphere, 3 days treatment, read-out: IC50
[6] = MDA-MB-231 3D tumorosphere, log scale, read-out: logIC50 ± SD (converted)

| Structure (SMILES) | IC50 (Hs 578T; [3]) | IC50 (Hs 578T; [4]) | IC50 (MDA-MB-231; [5]) | IC50 (MDA-MB-231; [6]) | KRAS/HRAS mutant cell line DSS3 ratio (MDA-MB-231) | chemical stability (Chemical stability note) | Kd (calmodulin (CaM)) | Ki (calmodulin (CaM)) | affinity for CaM relative to OphA (calmodulin (CaM); after 24-h incubation, higher affinity than OphA) | kinact/KI (calmodulin (CaM)) | IC50 (K-RasG12V/CaM) | binding to mutCaM over time [1] | concentration inhibiting CaM targets [2] |
| --- | --- | --- | --- | --- | --- | --- | --- | --- | --- | --- | --- | --- | --- |
| CC(C)c1ccc2cc(C(F)(F)F)c(=O)c3c(N4CCN(C)CC4)c(C=O)c(c1)c23 [Compound 3] | 25.8 µM | 25.1 µM | 35 µM | 34.7 µM | 6.0 | chemically not as stable | 0.25 µM | 11 µM | 15 fold | 11.7 M⁻¹ s⁻¹ |  |  |  |
| Cc1c(N2CCCCC2)c2c(=O)c(C(F)(F)F)cc3ccc(C(C)C)cc1c32 [Compound 8] | 10.6 µM | 10.5 µM | 32.4 µM | 31.6 µM | 1.5 |  | 3.1 µM | 39 µM |  | 2.5 M⁻¹ s⁻¹ | 70 ± 11 µM | same binding affinity for wt CaM and mutCaM over time |  |
| NCCCCCCNS(=O)(=O)c1cccc2c(Cl)cccc12 [Compound W-7] |  |  |  |  |  |  |  |  |  |  |  |  | > 100 µM |
